# Measured values published in US20260007758A1, “SO[…]-2 RECEPTOR (SST2R) NON-PEPTIDE DRUG CONJUGATES AND USES THEREOF” (Crinetics Pharmaceuticals, Inc., priority 2024, published 2026).
# *1 amine or outer side, *2 acyl side, *3 side chain or, on linkers, in order; H or OH if unused. Where a SMILES comes first, the peptide text is derived from it. [ ]: non-standard residue; d: D form. The star is where a group is joined. X3 = Cc1cc(F)cc(-c2cnc(NCCNC(=O)CCOCCOCCOCCOCCC(=O)*)c(-c3nc4ccc(Cl)cc4[nH]3)c2N2CCC(N)CC2)c1; Dolaproine = CO[C@@H]([C@@H]1CCCN1)[C@@H](C)C(=O)O; Dil = CC[C@H](C)[C@H](NC)[C@@H](CC(=O)O)OC; PABC = O=C(OCc1ccc(N[*:1])cc1)[*:2]; X2 = C[C@@H](N*)[C@@H](O)c1ccccc1; Cit = NC(=O)NCCC[C@H](N)C(=O)O; NMeV = CN[C@H](C(=O)O)C(C)C; Ahx = NCCCCCC(=O)O
# What was measured:
# Type in all cases: cell-based
# [1] = biological target: T1, human somatostatin receptor subtype 2 (Homo sapiens, UniProt P30874); experiment: Functional assay for SSTR2 agonists (HTRF cAMP); settings: CHO-K1 cells stably expressing human SST2; NKH477-stimulated cAMP; 20 min at 37 C; read-out: hSST2 cAMP Avg EC50
# T1 construct: expressed in transfected cells
# From the text: General overview: All five SSTR subtypes are Gi coupled G-protein coupled receptors (GPCRs) that lead to decreases in intracellular cyclic AMP (cAMP) when activated by an agonist. Therefore, measurement of intracellular cAMP levels can be used to assess whether compounds of the invention are agonists of SSTR subtypes (John Kelly, Troy Stevens, W. Joseph Thompson, and Roland Seifert, Current Protocols in Pharmacology. 2005, 2.2.1-2.2). One example of an intracellular cAMP assay is described below.
# Four days prior to the assay, 2,000 Chinese hamster ovary cells (CHO-K1, ATCC #CCL-61) stably expressing the human somatostatin receptor subtype 2 are plated in each well of a 96-well tissue culture-treated plate in Ham's F12 growth media (ThermoFisher #10-080-CM) supplemented with 10% donor bovine serum (Gemini Bio-Products #100-506), 100 U/mL penicillin; 100 ug/mL streptomycin, 2 mM L-glutamine (Gemini Bio-Products #400-110) and 0.2 mg/mL hygromycin B (GoldBio #31282-04-9). The cells are cultured at 37° C., 5% CO2 and 95% humidity. cAMP is measured with HTRF dynamic cAMP assay (Cisbio. #62AM5PEJ) per manufacturer's instructions. […] The cells are incubated for 20 minutes at 37° C. (the final concentration of the compounds of the invention are typically 0-10,000 nM). The cells are treated with 50 μL of lysis buffer (HRTF cAMP kit, Cisbio) and incubated at room temperature for 30 minutes with rotary shaking at 600 rpm, and then diluted with 150 μL of stimulation buffer and shaken for an additional five minutes at 300 rpm. The lysate is transferred to 384-well plates and incubated for 1-24 hours at room temperature, and cAMP accumulation is detected by d2-labeled cAMP and Anti-cAMP-Cryptate. The time-resolved fluorescent signal is read using a m1000 Pro (Tecan) or CLARIOStar (BMG Labtech) microplate reader, where the samples are excited with light at 340 nm and emission light is measured at 620 nm and 665 nm. The data is expressed as a calculation of the fluorescence ratio (665 nm/620 nm). The intracellular cAMP concentrations are calculated by regression to a standard curve and are plotted vs, the concentration of the compounds of the invention. The EC50 of the compounds are calculated using standard methods. All data manipulations are in GraphPad Prism v9 (GraphPad, San Diego, CA).
# [2] = system: NCI-H524 human small cell lung cancer cells; experiment: H524 assay: inhibition of cell proliferation (CellTiter Glo); settings: 2 h treatment, washout, additional 70 h incubation
# Method: NDCs of the present invention were assessed in an in vitro assay evaluating the inhibition of cell proliferation. NCI-H524 (ATCC) human small cell lung cancer cells were plated in 96-well V-bottom plates (Costar) at a concentration of 5,000 cells/well. 24 h later, the cells were treated for 2 h with a NDC. NDC starting dose was 1 uM and two-fold serial dilutions were done for a total of 11 points. After 2 h of treatment, cells were spun down, and the drug-containing media was removed, and fresh complete media was added and used to resuspend the cells, which were spun again. After removal of the media, the cells were resuspended in complete medium and incubated for an additional 70 h. Cell proliferation was assessed using the CellTiter Glo Assay according to the standard protocol (Promega). Luminescence was measured using a TECAN plate reader. Percent proliferation inhibition was calculated using the following formula: % inhibition=(Luminescence Control−Luminescence Treatment)/Luminescence Control*100. IC50 curves were generated using the nonlinear regression analysis (four-parameter) with GraphPad Prism 9.
# SST2 = biological target: T2, SST2 (Homo sapiens, UniProt P30874); experiment: PathHunter CHO-K1 SST2 Internalization Assay; settings: PathHunter CHO-K1 SST2 cells; 90 min at 37 C; luminescence; read-out: Internalization EC50
# T2 construct: host or cells: PathHunter CHO-K1 SST2 cells
# Method: NDCs of the present invention were assessed in vitro using the human PathHunter CHO-K1 SST2 β-arrestin2 and PathHunter CHO-K1 SST2 Internalization Assays from DiscoverX. The CHO-K cells were seeded in 20 μLs of cell culture medium in a white-walled 384 well tissue culture-compatible plate at a density of 2500 cells/well. After a 48-hour incubation, cells were treated with 5 μLs of a 1:3 serially diluted SST2 NDC prepared at 5× concentration with a final top compound concentration of 10 uM for 90 min at 37 C and in 5% CO2. 11 dilutions were tested as well as one treatment that was compound free. After incubation, the media containing treatments were discarded and 20 μL of a working solution of Beta-Glo from Promega Beta-Go Assay System was added to each well. The plate was then incubated for 60 min at room temperature in the dark. Luminescence was measured using a Tecan plate reader. IC50 curves were generated using the nonlinear regression analysis (four-parameters) with GraphPad Prism 9. Results were the average of duplicates and are corrected for background.
# T1 sequence (P30874 whole entry): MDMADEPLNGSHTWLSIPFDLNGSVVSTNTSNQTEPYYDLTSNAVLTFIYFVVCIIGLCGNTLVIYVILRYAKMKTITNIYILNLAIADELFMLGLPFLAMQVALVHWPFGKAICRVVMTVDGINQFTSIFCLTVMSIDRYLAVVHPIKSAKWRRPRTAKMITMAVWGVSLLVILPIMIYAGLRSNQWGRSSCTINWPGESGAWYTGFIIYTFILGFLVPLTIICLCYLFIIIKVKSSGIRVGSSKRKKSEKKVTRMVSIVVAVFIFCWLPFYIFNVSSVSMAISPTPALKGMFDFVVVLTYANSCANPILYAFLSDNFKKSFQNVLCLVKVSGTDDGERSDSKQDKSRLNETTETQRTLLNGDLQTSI
# T2 sequence (P30874 whole entry): as above
SMILES,EC50 [1] [nM],EC50 [2] [nM],EC50 (SST2) [nM]
CC[C@H](C)[C@@H]([C@@H](CC(=O)N1CCC[C@H]1[C@H](OC)[C@@H](C)C(=O)N[C@H](C)[C@@H](O)c1ccccc1)OC)N(C)C(=O)[C@@H](NC(=O)[C@H](C(C)C)N(C)C(=O)OCc1ccc(NC(=O)[C@H](CCCNC(N)=O)NC(=O)[C@@H](NC(=O)[C@H](CCC(=O)O)NC(=O)CCOCCC(=O)NCCNc2ncc(-c3cc(C)cc(F)c3)c(N3CCC(N)CC3)c2-c2nc3ccc(Cl)cc3[nH]2)C(C)C)c(OCCN)c1)C(C)C [Compound 1],0.25,15,18
CC[C@H](C)[C@@H]([C@@H](CC(=O)N1CCC[C@H]1[C@H](OC)[C@@H](C)C(=O)N[C@H](C)[C@@H](O)c1ccccc1)OC)N(C)C(=O)[C@@H](NC(=O)[C@H](C(C)C)N(C)C(=O)OCc1ccc(NC(=O)[C@H](CCCNC(N)=O)NC(=O)[C@@H](NC(=O)[C@H](CCC(=O)O)NC(=O)CCOCCC(=O)NCCNc2ncc(-c3cc(C)cc(F)c3)c(N3CCC(N)CC3)c2-c2nc3ccc(Cl)cc3[nH]2)C(C)C)cc1C(F)(F)F)C(C)C [Compound 2],0.57,2500,8.6
CC[C@H](C)[C@@H]([C@@H](CC(=O)N1CCC[C@H]1[C@H](OC)[C@@H](C)C(=O)N[C@H](C)[C@@H](O)c1ccccc1)OC)N(C)C(=O)[C@@H](NC(=O)[C@H](C(C)C)N(C)C(=O)OCc1ccc(NC(=O)[C@H](CCCNC(N)=O)NC(=O)[C@@H](NC(=O)CCOCCC(=O)NCCNc2ncc(-c3cc(C)cc(F)c3)c(N3CCC(N)CC3)c2-c2nc3ccc(Cl)cc3[nH]2)C(C)C)cc1C(=O)O)C(C)C [Compound 7],0.26,–,–
CC[C@H](C)[C@@H]([C@@H](CC(=O)N1CCC[C@H]1[C@H](OC)[C@@H](C)C(=O)N[C@H](C)[C@@H](O)c1ccccc1)OC)N(C)C(=O)[C@@H](NC(=O)[C@H](C(C)C)N(C)C(=O)OCc1ccc(NC(=O)[C@H](C)NC(=O)[C@@H](NC(=O)CCCC(=O)N(C)CC(=O)NCCNc2ncc(-c3cc(C)cc(F)c3)c(N3CCC(N)CC3)c2-c2nc3ccc(Cl)cc3[nH]2)C(C)C)c(O[C@@H]2O[C@H](C(=O)NCCN)[C@@H](O)[C@H](O)[C@H]2O)c1)C(C)C [Compound 45],1.3,–,–
CC[C@H](C)[C@@H]([C@@H](CC(=O)N1CCC[C@H]1[C@H](OC)[C@@H](C)C(=O)N[C@H](C)[C@@H](O)c1ccccc1)OC)N(C)C(=O)[C@@H](NC(=O)[C@H](C(C)C)N(C)C(=O)OCc1ccc(NC(=O)[C@H](C)NC(=O)[C@@H](NC(=O)CCOCCC(=O)N(C)CC(=O)NCCNc2ncc(-c3cc(C)cc(F)c3)c(N3CCC(N)CC3)c2-c2cc3ccc(Cl)cc3[nH]2)C(C)C)c(O[C@@H]2O[C@H](C(=O)NCCN)[C@@H](O)[C@H](O)[C@H]2O)c1)C(C)C [Compound 46],0.23,–,–
CC[C@H](C)[C@@H]([C@@H](CC(=O)N1CCC[C@H]1[C@H](OC)[C@@H](C)C(=O)N[C@H](C)[C@@H](O)c1ccccc1)OC)N(C)C(=O)[C@@H](NC(=O)[C@H](C(C)C)N(C)C(=O)OCc1ccc(NC(=O)[C@H](C)NC(=O)[C@@H](NC(=O)CCOCCC(=O)N(C)CC(=O)NCCNc2ncc(-c3cc(C)cc(F)c3)c(N3CCC(N)CC3)c2-c2cc3ccc(Cl)cc3[nH]2)C(C)C)c(O[C@@H]2O[C@H](C(=O)NCCN)[C@@H](O)[C@H](O)[C@H]2O)c1)C(C)C [Compound 47],0.31,–,–
CC[C@H](C)[C@@H]([C@@H](CC(=O)N1CCC[C@H]1[C@H](OC)[C@@H](C)C(=O)N[C@H](C)[C@@H](O)c1ccccc1)OC)N(C)C(=O)[C@@H](NC(=O)[C@H](C(C)C)N(C)C(=O)OCc1ccc(NC(=O)[C@H](CCCNC(N)=O)NC(=O)[C@@H](NC(=O)CCOCCC(=O)NCCNc2ncc(-c3cc(C)cc(F)c3)c(N3CCC(N)CC3)c2-c2nc3ccc(Cl)cc3[nH]2)C(C)C)c(O[C@@H]2O[C@H](C(=O)NCCNC(=O)CCCCCCCCCCCCCCC(=O)O)[C@@H](O)[C@H](O)[C@H]2O)c1)C(C)C [Compound 53],0.48,200,–
CC[C@H](C)[C@@H]([C@@H](CC(=O)N1CCC[C@H]1[C@H](OC)[C@@H](C)C(=O)N[C@H](C)[C@@H](O)c1ccccc1)OC)N(C)C(=O)[C@@H](NC(=O)[C@H](C(C)C)N(C)C(=O)OCc1ccc(NC(=O)[C@H](CCCNC(N)=O)NC(=O)[C@@H](NC(=O)CCOCCC(=O)NCCNc2ncc(-c3cc(C)cc(F)c3)c(N3CCC(N)CC3)c2-c2nc3ccc(Cl)cc3[nH]2)C(C)C)cc1C(=O)NCC(=O)O)C(C)C [Compound 60],0.17,–,–
CC[C@H](C)[C@@H]([C@@H](CC(=O)N1CCC[C@H]1[C@H](OC)[C@@H](C)C(=O)N[C@H](C)[C@@H](O)c1ccccc1)OC)N(C)C(=O)[C@@H](NC(=O)[C@H](C(C)C)N(C)C(=O)OCc1ccc(NC(=O)[C@H](CCCNC(N)=O)NC(=O)[C@@H](NC(=O)CCCC(=O)N(C)CC(=O)N(C)CC(=O)N(C)CC(=O)NCCNc2ncc(-c3cc(C)cc(F)c3)c(N3CCC(N)CC3)c2-c2nc3ccc(Cl)cc3[nH]2)C(C)C)c(O[C@@H]2O[C@H](C(=O)O)[C@@H](O)[C@H](O)[C@H]2O)c1)C(C)C [Compound 130],–,3800,–
CC[C@H](C)[C@@H]([C@@H](CC(=O)N1CCC[C@H]1[C@H](OC)[C@@H](C)C(=O)N[C@H](C)[C@@H](O)c1ccccc1)OC)N(C)C(=O)[C@@H](NC(=O)[C@H](C(C)C)N(C)C(=O)OCc1ccc(NC(=O)[C@H](C)NC(=O)[C@@H](NC(=O)C[C@@H](N)C(=O)NCCOCCC(=O)NCCNc2ncc(-c3cc(C)cc(F)c3)c(N3CCC(NC)CC3)c2-c2nc3ccc(Cl)cc3[nH]2)C(C)C)c(O[C@@H]2O[C@H](C(=O)O)[C@@H](O)[C@H](O)[C@H]2O)c1)C(C)C [Compound 135],0.42,–,3.6
CC[C@H](C)[C@@H]([C@@H](CC(=O)N1CCC[C@H]1[C@H](OC)[C@@H](C)C(=O)N[C@H](C)[C@@H](O)c1ccccc1)OC)N(C)C(=O)[C@@H](NC(=O)[C@H](C(C)C)N(C)C(=O)OCc1ccc(NC(=O)[C@H](CCCNC(N)=O)NC(=O)[C@@H](NC(=O)CCCCCNC(=O)[C@H](CCC(N)=O)NC(=O)[C@H](CCC(N)=O)NC(=O)CCOCCOCCOCCOCCC(=O)NCCNc2ncc(-c3cc(C)cc(F)c3)c(N3CCC(N)CC3)c2-c2nc3ccc(Cl)cc3[nH]2)C(C)C)cc1)C(C)C [Compound 143] (X3-QQ[Ahx]V[Cit][PABC][NMeV]V[Dil][Dolaproine]-X2),0.4,–,–
CC[C@H](C)[C@@H]([C@@H](CC(=O)N1CCC[C@H]1[C@H](OC)[C@@H](C)C(=O)N[C@H](C)[C@@H](O)c1ccccc1)OC)N(C)C(=O)[C@@H](NC(=O)[C@H](C(C)C)N(C)C(=O)OCc1ccc(O[C@@H]2O[C@H](C(=O)O)[C@@H](O)[C@H](O)[C@H]2O)c(NC(=O)[C@H](CCCNC(N)=O)NC(=O)[C@@H](NC(=O)CCOCCC(=O)NCCNc2ncc(-c3cc(C)cc(F)c3)c(N3CCC(N)CC3)c2-c2nc3ccc(Cl)cc3[nH]2)C(C)C)c1)C(C)C [Compound 248],–,3.2,–
